Data taken from patent publication US20180217131A1, “Novel Cell Based Assay” (Medical Diagnostic Laboratories, LLC, priority 2017, published 2018).
Numbering of substitutions follows the chain as printed.

Assays:
Assay type in all cases: cell-based
[1] = target: T1, aromatase (wild-type CYP19A1) (Homo sapiens, UniProt P11511); experiment: Aromatase reporter assay, 3×ERE-luc clone #4 cells transfected with expression constructs of estrogen receptor and aromatase; conditions: 24 hours; for testosterone-induced luciferase reporter activity in the presence of aromatase inhibitor: clone #4, testosterone with or without inhibitor
T1 construct: expressed in transfected cells; host or cells: HEK 293-derived 3xERE-luc clone #4 (co-transfected with ESR1) or clone #1 (stably expressing wild-type ESR1)
T1 sequence (P11511 1-503): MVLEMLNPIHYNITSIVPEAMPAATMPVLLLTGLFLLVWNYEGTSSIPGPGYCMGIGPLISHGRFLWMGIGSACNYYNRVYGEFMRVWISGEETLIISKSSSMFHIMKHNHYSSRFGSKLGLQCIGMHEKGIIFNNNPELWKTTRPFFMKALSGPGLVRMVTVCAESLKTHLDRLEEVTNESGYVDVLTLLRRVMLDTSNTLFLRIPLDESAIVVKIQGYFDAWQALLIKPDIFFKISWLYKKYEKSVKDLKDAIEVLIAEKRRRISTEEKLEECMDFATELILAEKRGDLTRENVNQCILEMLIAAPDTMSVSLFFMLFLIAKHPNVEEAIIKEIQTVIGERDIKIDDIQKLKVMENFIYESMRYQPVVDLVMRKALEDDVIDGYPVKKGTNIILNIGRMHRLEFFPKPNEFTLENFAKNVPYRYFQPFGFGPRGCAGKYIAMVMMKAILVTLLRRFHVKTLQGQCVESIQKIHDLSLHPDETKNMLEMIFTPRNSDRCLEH
Method: A serial dilution of testosterone was added to the cells for 24 hours. The luciferase reporter activity was measured.
The transfected cells were treated with testosterone in the presence or absence of aromatase inhibitors, anastrozole and letrozole, for 24 hours (FIG. 31).

[2] = target: T1, aromatase (wild-type CYP19A1); experiment: Aromatase reporter assay, clone #1 cells (stable 3×ERE-Luc and wild-type ESR1) transfected with linear expression cassette of wild-type CYP19A1
Method: The luciferase reporter activity was measured 24 hours post-transfection.

[3] = target: T2, R192H mutant of aromatase (CYP19A1) (Homo sapiens, UniProt P11511, R192H); experiment: Aromatase reporter assay with R192H mutant of CYP19A1
T2 construct: expressed in transfected cells; host or cells: HEK 293-derived reporter cells (clone #4 with ESR1 co-transfected; clone #1 stably expressing ESR1)
T2 sequence (P11511 1-503 R192H): T1 sequence (P11511 1-503) with R192H
Method: (§1) The transfected cells were treated with a serial dilution of testosterone. The luciferase reporter activity was measured 24 hours post-transfection.
R192H corresponds to a missense mutation of CYP19A1, which changed arginine (R) into histidine (H) at amino acid position of 192. In order to functionally characterize this mutation, PCR-mediated overlapping extension was employed to construct linear expression cassette of aromatase carrying this mutation. We first transfected the linear expression cassette of either wild-type aromatase or mutant aromatase DNA into the reporter cells followed by treatment with testosterone and its inhibitors using “all-in-one” method. The luciferase reporter activity was measured 24 hours post-transfection.
We used the formula as illustrated in the above-mentioned example to calculate the activity of aromatase.

[4] = target: T3, R435C mutant of aromatase (CYP19A1) (Homo sapiens, UniProt P11511, R435C); experiment: Aromatase reporter assay with R435C mutant of CYP19A1
T3 construct: expressed in transfected cells; host or cells: HEK 293-derived reporter cells (clone #4 with ESR1 co-transfected; clone #1 stably expressing ESR1)
T3 sequence (P11511 1-503 R435C): T1 sequence (P11511 1-503) with R435C
Method: as §1
R435C corresponds to a missense mutation of CYP19A1, which changed arginine (R) into cysteine (C) at amino acid position of 435. In order to functionally characterize this mutation, PCR-mediated overlapping extension was employed to construct linear expression cassette of aromatase carrying this mutation. We first transfected the linear expression cassette of either wild-type aromatase or mutant aromatase DNA into the reporter cells followed by treatment with testosterone and its inhibitors using “all-in-one” method. The luciferase reporter activity was measured 24 hours post-transfection.

SMILES | testosterone-induced luciferase reporter activity in the presence of aromatase inhibitor [1] | luciferase activity upon treatment of testosterone ([1]; clone #4, estrogen receptor and aromatase constructs, serial dilution of testosterone) | luciferase reporter activity upon addition of testosterone ([2]; clone #1, 25 ng or 50 ng aromatase linear DNA, testosterone for 6 hours) | reporter signal at 1 pM of testosterone ([2]; clone #1, 50 ng linear cassette, testosterone for 24 hours, 1 pM) | luciferase activity upon treatment of testosterone, compared to wild type ([3]; clone #1, linear expression cassette of R192H, all-in-one method) | luciferase reporter activity upon testosterone, compared to wild type ([3]; clone #4, expression constructs of estrogen receptor and R192H aromatase, serial dilution of testosterone) | luciferase activity upon treatment of testosterone ([4]; clone #1, linear expression cassette of R435C, all-in-one method) | induction of luciferase reporter activity upon testosterone exposure ([4]; clone #4, expression constructs of estrogen receptor and R435C aromatase)
N#Cc1ccc(C(c2ccc(C#N)cc2)n2cncn2)cc1 [letrozole] | reduced |  |  |  |  |  |  | 
C[C@]12CC[C@H]3[C@@H](CCC4=CC(=O)CC[C@@]43C)[C@@H]1CC[C@@H]2O [testosterone] |  | dose dependent activation of luciferase activity was observed | responded to testosterone in a dose-dependent manner | robust reporter signal was detected | reduced luciferase activity was observed | reduced luciferase reporter activity | no increase in luciferase activity was observed | no induction of luciferase reporter activity
CC(C)(C#N)c1cc(Cn2cncn2)cc(C(C)(C)C#N)c1 [anastrozole] | reduced |  |  |  |  |  |  | 
